Starred links: 1 amine or outer side, 2 acyl side, 3 side chain; linkers in the order of their positions; H or OH if unused. Non-standard residues stand in square brackets, D forms with d. Residues, ends and D or L forms follow the SMILES beside them. *: point of attachment. DOTA = O=C(O)CN1CCN(CC(=O)O)CCN(CC(=O)*)CCN(CC(=O)O)CC1; Bpa = N[C@@H](Cc1ccc(C(=O)c2ccccc2)cc1)C(=O)O; d2Nal = N[C@H](Cc1ccc2ccccc2c1)C(=O)O; X2 = O=C(N(N[*:1])c1ccccn1)[*:2]; NHPh = c1ccc(N*)cc1; azaGly = NNC(=O)O; Sar = CNCC(=O)O
These molecules were tested on LHRH binding sites on human ovarian cancer cells (EFO-27). Conditions: not given.
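Note: Cell-associated radioactivity on confluent EFO-27 monolayers in 96-well plates, measured by microplate scintillation counting.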

Structure (SMILES) | EC50 [µM]
COc1ccccc1CNC(=O)[C@@H]1CCCN1C(=O)[C@H](Cc1ccc(C(=O)c2ccccc2)cc1)NC(=O)[C@H](Cc1c[nH]c2ccccc12)NC(=O)[C@@H](CCCNC(=N)N)NC(=O)[C@H](Cc1c[nH]cn1)NC(=O)[C@H](CO)NC(=O)[C@H](Cc1c[nH]c2ccccc12)NC(=O)[C@H](CCCNC(=N)N)NC(=O)[C@@H](Cc1ccc2ccccc2c1)NC(=O)CN1CCN(CC(=O)O)CCN(CC(=O)O)CCN(CC(=O)O)CC1 [compound 3020] | 0.45
CN(CC(=O)N[C@@H](Cc1c[nH]cn1)C(=O)N[C@@H](Cc1c[nH]c2ccccc12)C(=O)N[C@@H](CO)C(=O)N[C@@H](Cc1c[nH]cn1)C(=O)N[C@H](CCCNC(=N)N)C(=O)N[C@@H](Cc1c[nH]c2ccccc12)C(=O)N[C@@H](Cc1ccccc1)C(=O)N1CCC[C@H]1C(=O)NNC(N)=O)C(=O)CN1CCN(CC(=O)O)CCN(CC(=O)O)CCN(CC(=O)O)CC1 [BRU-2730] (HELM PEPTIDE1{[O=C(O)CN1CCN(CC(=O)O)CCN(CC(=O)[*:2])CCN(CC(=O)O)CC1].[Sar].H.W.S.H.[dR].W.F.P.[O=C(NN[*:1])[*:2]].[am]}$$$$V2.0) | 12.9
CN(NC(=O)[C@@H]1CCCN1C(=O)[C@H](Cc1ccc(C(=O)c2ccccc2)cc1)NC(=O)[C@H](Cc1c[nH]c2ccccc12)NC(=O)[C@@H](CCCNC(=N)N)NC(=O)[C@H](Cc1c[nH]cn1)NC(=O)[C@H](CO)NC(=O)[C@H](Cc1c[nH]c2ccccc12)NC(=O)[C@H](CCCNC(=N)N)NC(=O)[C@@H](Cc1ccc2ccccc2c1)NC(=O)CN1CCN(CC(=O)O)CCN(CC(=O)O)CCN(CC(=O)O)CC1)C(N)=O [compound 3021] | 0.5
N=C(N)NCCC[C@@H](NC(=O)[C@H](Cc1c[nH]cn1)NC(=O)[C@H](CO)NC(=O)[C@H](Cc1c[nH]c2ccccc12)NC(=O)[C@H](Cc1c[nH]cn1)NC(=O)[C@H](Cc1ccc2ccccc2c1)NC(=O)CN1CCN(CC(=O)O)CCN(CC(=O)O)CCN(CC(=O)O)CC1)C(=O)N[C@@H](Cc1c[nH]c2ccccc12)C(=O)N[C@@H](Cc1ccc(C(=O)c2ccccc2)cc1)C(=O)N1CCC[C@H]1C(=O)NNC(N)=O [BRU-2809] | 3.54
N=C(N)NCCC[C@H](NC(=O)[C@H](CO)NC(=O)[C@H](Cc1c[nH]c2ccccc12)NC(=O)[C@H](CCCNC(=N)N)NC(=O)[C@@H](Cc1ccc2ccccc2c1)NC(=O)CN1CCN(CC(=O)O)CCN(CC(=O)O)CCN(CC(=O)O)CC1)C(=O)N[C@H](Cc1c[nH]c2ccccc12)C(=O)N[C@@H](Cc1c[nH]c2ccccc12)C(=O)N[C@@H](Cc1ccc(C(=O)c2ccccc2)cc1)C(=O)N1CCC[C@H]1C(=O)NNC(N)=O [compound 3001] ({DOTA}-[d2Nal]RWSR[dW]W[Bpa]P[azaGly]-NH2) | 3.28
N=C(N)NCCC[C@H](NC(=O)[C@@H](Cc1ccc2ccccc2c1)NC(=O)CN1CCN(CC(=O)O)CCN(CC(=O)O)CCN(CC(=O)O)CC1)C(=O)N[C@@H](Cc1cccnc1)C(=O)N[C@@H](CO)C(=O)N[C@@H](Cc1c[nH]cn1)C(=O)N[C@H](CCCNC(=N)N)C(=O)N[C@@H](Cc1c[nH]c2ccccc12)C(=O)N[C@@H](Cc1ccc(C(=O)c2ccccc2)cc1)C(=O)N1CCC[C@H]1C(=O)NNC(N)=O [compound 3109] | 0.73
CN(CC(=O)N[C@@H](Cc1c[nH]cn1)C(=O)N[C@@H](Cc1c[nH]c2ccccc12)C(=O)N[C@@H](CO)C(=O)N[C@@H](Cc1c[nH]cn1)C(=O)N[C@H](CCCNC(=N)N)C(=O)N[C@@H](Cc1c[nH]c2ccccc12)C(=O)N[C@H](C(=O)N1CCC[C@H]1C(=O)NNC(N)=O)C(c1ccccc1)c1ccccc1)C(=O)CN1CCN(CC(=O)O)CCN(CC(=O)O)CCN(CC(=O)O)CC1 [BRU-2721] | 4.55
CNCC(=O)N[C@@H](Cc1c[nH]cn1)C(=O)N[C@@H](Cc1c[nH]c2ccccc12)C(=O)N[C@@H](CO)C(=O)N[C@@H](Cc1c[nH]cn1)C(=O)N[C@H](CCCNC(=N)N)C(=O)N[C@@H](Cc1c[nH]c2ccccc12)C(=O)N[C@@H](Cc1ccc(C(=O)c2ccccc2)cc1)C(=O)N1CCC[C@H]1C(=O)NCCNC(=O)CN1CCN(CC(=O)O)CCN(CC(=O)O)CCN(CC(=O)O)CC1 [BRU-3079] | 0.59 to 1
CN(CC(N)=O)NC(=O)[C@@H]1CCCN1C(=O)[C@H](Cc1ccc(C(=O)c2ccccc2)cc1)NC(=O)[C@H](Cc1c[nH]c2ccccc12)NC(=O)[C@@H](CCCNC(=N)N)NC(=O)[C@H](Cc1c[nH]cn1)NC(=O)[C@H](CO)NC(=O)[C@H](Cc1c[nH]c2ccccc12)NC(=O)[C@H](CCCNC(=N)N)NC(=O)[C@@H](Cc1ccc2ccccc2c1)NC(=O)CN1CCN(CC(=O)O)CCN(CC(=O)O)CCN(CC(=O)O)CC1 [compound 2967] | 0.44
CN(CC(=O)N[C@@H](Cc1c[nH]cn1)C(=O)N[C@@H](Cc1c[nH]c2ccccc12)C(=O)N[C@@H](CO)C(=O)N[C@@H](Cc1c[nH]cn1)C(=O)N[C@H](CCCNC(=N)N)C(=O)N[C@@H](Cc1c[nH]c2ccccc12)C(=O)N[C@@H](Cc1ccc(-c2ccccc2)cc1)C(=O)N1CCC[C@H]1C(=O)NNC(N)=O)C(=O)CN1CCN(CC(=O)O)CCN(CC(=O)O)CCN(CC(=O)O)CC1 [BRU-2625] | 2.14
CNCC(=O)N[C@@H](Cc1c[nH]cn1)C(=O)N[C@@H](Cc1c[nH]c2ccccc12)C(=O)N[C@@H](CO)C(=O)N[C@@H](Cc1c[nH]cn1)C(=O)N[C@H](CCCNC(=N)N)C(=O)N[C@@H](Cc1c[nH]c2ccccc12)C(=O)N[C@@H](Cc1ccc(C(=O)c2ccccc2)cc1)C(=O)N1CCC[C@H]1C(=O)NCCNC(=O)CN1CCN(CC(=O)O)CCN(CC(=O)O)CCN(CC(=O)O)CC1 [compound 3079] | 0.59 ± 0.26
N=C(N)NCCC[C@H](NC(=O)[C@@H](Cc1ccc2ccccc2c1)NC(=O)CN1CCN(CC(=O)O)CCN(CC(=O)O)CCN(CC(=O)O)CC1)C(=O)N[C@@H](Cc1c[nH]c2ccccc12)C(=O)N[C@@H](CO)C(=O)N[C@@H](Cc1c[nH]cn1)C(=O)N[C@H](CCCNC(=N)N)C(=O)N[C@@H](Cc1c[nH]c2ccccc12)C(=O)N[C@@H](Cc1ccc(C(=O)c2ccccc2)cc1)C(=O)N1CCC[C@H]1C(=O)Nc1ccccc1 [compound 3006] | 0.42

Same assay, conditions: EFO-27 cells, competition with [125I-Tyr8]BRU-2477, 90 min

Structure (SMILES) | EC50 [µM]
N=C(N)NCCC[C@H](NC(=O)[C@@H](Cc1ccc2ccccc2c1)NC(=O)CN1CCN(CC(=O)O)CCN(CC(=O)O)CCN(CC(=O)O)CC1)C(=O)N[C@@H](Cc1c[nH]c2ccccc12)C(=O)N[C@@H](CO)C(=O)N[C@@H](Cc1c[nH]cn1)C(=O)N[C@H](CCCNC(=N)N)C(=O)N[C@@H](Cc1c[nH]c2ccccc12)C(=O)N[C@@H](Cc1ccc(C(=O)c2ccccc2)cc1)C(=O)N1CCC[C@H]1C(=O)NCC(=O)NN(C(=O)Nc1ccccc1)c1ccccn1 [compound 2989] ({DOTA}-[d2Nal]RWSH[dR]W[Bpa]PG[X2]-NHPh) | 1.13
N=C(N)NCCC[C@H](NC(=O)[C@H]1Cc2c([nH]c3ccccc23)CN1C(=O)CNC(=O)CN1CCN(CC(=O)O)CCN(CC(=O)O)CCN(CC(=O)O)CC1)C(=O)N[C@@H](Cc1c[nH]c2ccccc12)C(=O)N[C@@H](CO)C(=O)N[C@@H](Cc1c[nH]cn1)C(=O)N[C@H](CCCNC(=N)N)C(=O)N[C@@H](Cc1c[nH]c2ccccc12)C(=O)N[C@@H](Cc1ccc(C(=O)c2ccccc2)cc1)C(=O)N1CCC[C@H]1C(=O)NNC(N)=O [BRU-3068] | 0.24
N=C(N)NCCC[C@H](NC(=O)[C@@H](Cc1ccc2ccccc2c1)NC(=O)CN1CCN(CC(=O)O)CCN(CC(=O)O)CCN(CC(=O)O)CC1)C(=O)N[C@@H](Cc1c[nH]c2ccccc12)C(=O)N[C@@H](CO)C(=O)N[C@@H](Cc1c[nH]cn1)C(=O)N[C@H](CCCNC(=N)N)C(=O)N[C@@H](Cc1c[nH]c2ccccc12)C(=O)N[C@@H](Cc1ccc(C(=O)c2ccccc2)cc1)C(=O)N1C[C@@H](N)C[C@H]1C(=O)NNC(N)=O [compound 3062] | 0.32
N=C(N)NCCC[C@H](NC(=O)[C@H](Cc1ccc(OP(=O)(O)O)cc1)NC(=O)CN1CCN(CC(=O)O)CCN(CC(=O)O)CCN(CC(=O)O)CC1)C(=O)N[C@@H](Cc1c[nH]c2ccccc12)C(=O)N[C@@H](CO)C(=O)N[C@@H](Cc1c[nH]cn1)C(=O)N[C@H](CCCNC(=N)N)C(=O)N[C@@H](Cc1c[nH]c2ccccc12)C(=O)N[C@@H](Cc1ccc(C(=O)c2ccccc2)cc1)C(=O)N1CCC[C@H]1C(=O)NNC(N)=O [BRU-3093] | 17

Same assay, conditions: Table 5: modifications of amino acids at positions 1 and 2; in vitro binding on EFO-27 cells

Structure (SMILES) | EC50 [µM]
N=C(N)NCCC[C@@H](NC(=O)[C@H](Cc1c[nH]cn1)NC(=O)[C@H](CO)NC(=O)[C@H](Cc1c[nH]c2ccccc12)NC(=O)[C@H](Cc1c[nH]cn1)NC(=O)[C@@H](Cc1cccc2ccccc12)NC(=O)CNC(=O)CN1CCN(CC(=O)O)CCN(CC(=O)O)CCN(CC(=O)O)CC1)C(=O)N[C@@H](Cc1c[nH]c2ccccc12)C(=O)N[C@@H](Cc1ccc(C(=O)c2ccccc2)cc1)C(=O)N1CCC[C@H]1C(=O)NNC(N)=O [BRU-2766] | 0.62
CN(CC(=O)N[C@@H](Cc1ccc(O)cc1)C(=O)N[C@@H](Cc1c[nH]c2ccccc12)C(=O)N[C@@H](CO)C(=O)N[C@@H](Cc1c[nH]cn1)C(=O)N[C@H](CCCNC(=N)N)C(=O)N[C@@H](Cc1c[nH]c2ccccc12)C(=O)N[C@@H](Cc1ccc(C(=O)c2ccccc2)cc1)C(=O)N1CCC[C@H]1C(=O)NNC(N)=O)C(=O)CN1CCN(CC(=O)O)CCN(CC(=O)O)CCN(CC(=O)O)CC1 [BRU-2814] ({DOTA}-[Sar]YWSH[dR]W[Bpa]P[azaGly]-NH2) | 2.24
CN(CC(=O)N[C@@H](Cc1ccccc1)C(=O)N[C@@H](Cc1c[nH]c2ccccc12)C(=O)N[C@@H](CO)C(=O)N[C@@H](Cc1c[nH]cn1)C(=O)N[C@H](CCCNC(=N)N)C(=O)N[C@@H](Cc1c[nH]c2ccccc12)C(=O)N[C@@H](Cc1ccc(C(=O)c2ccccc2)cc1)C(=O)N1CCC[C@H]1C(=O)NNC(N)=O)C(=O)CN1CCN(CC(=O)O)CCN(CC(=O)O)CCN(CC(=O)O)CC1 [BRU-2738] ({DOTA}-[Sar]FWSH[dR]W[Bpa]P[azaGly]-NH2) | 1.22
N=C(N)NCCC[C@@H](NC(=O)[C@H](Cc1c[nH]cn1)NC(=O)[C@H](CO)NC(=O)[C@H](Cc1c[nH]c2ccccc12)NC(=O)[C@H](Cc1c[nH]cn1)NC(=O)CNC(=O)CNC(=O)CN1CCN(CC(=O)O)CCN(CC(=O)O)CCN(CC(=O)O)CC1)C(=O)N[C@@H](Cc1c[nH]c2ccccc12)C(=O)N[C@@H](Cc1ccc(C(=O)c2ccccc2)cc1)C(=O)N1CCC[C@H]1C(=O)NNC(N)=O [BRU-2795] | 1.37

Reference: patent publication US20120045393A1 (priority 2009, published 2012)
